Converted amounts (≈) assume the structure as drawn. Where two headings read alike, the source gives them in different places.
Key:
[1] = system: S. aureus VRSA; test: MIC, broth microdilution, vancomycin-resistant S. aureus (VRSA); type: cell-based, Staphylococcus aureus; settings: for MIC: Staphylococcus aureus VRSA, read-out: MIC; for MIC-fold improvement vs. vancomycin: VRSA, ratio of MIC of vancomycin and MIC of analogue
Method in brief: (§1)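 Read-out: lowest concentration inhibiting growth in broth microdilution, CLSI method. Water and broth-only wells acted as controls; in one case 10 μM vancomycin (final) was present with the compound.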

[2] = system: E. faecalis VSE 1; test: MIC, broth microdilution, vancomycin-sensitive E. faecalis (VSE 1); type: cell-based, Enterococcus faecalis; settings: for MIC: read-out: MIC; for MIC-fold improvement vs. vancomycin: VSE 1
Method in brief: as §1

[3] = system: E. faecalis VRE 37; test: MIC, broth microdilution, vancomycin-resistant E. faecalis VRE 37 (VanA); type: cell-based, Enterococcus faecalis; settings: for MIC: Enterococcus faecalis VRE 37 (vancomycin-resistant), read-out: MIC; for MIC-fold improvement vs. vancomycin: VRE 37, ratio of MIC of vancomycin and MIC of analogue
Method in brief: as §1

[4] = system: MRSA KS6; test: MIC, broth microdilution, MRSA KS6; type: cell-based, Staphylococcus aureus; settings: for MIC-fold improvement vs. vancomycin: MRSA KS6, ratio of MIC of vancomycin and MIC of analogue; for MIC: Staphylococcus aureus MRSA KS6, read-out: MIC
Method in brief: as §1

[5] = system: S. aureus VISA/HIP5827; test: MIC, broth microdilution, vancomycin-intermediate S. aureus VISA HIP5827; type: cell-based, Staphylococcus aureus; settings: for MIC: Staphylococcus aureus VISA/HIP5827, read-out: MIC; for MIC-fold improvement vs. vancomycin: VISA/HIP5827, ratio of MIC of vancomycin and MIC of analogue
Method in brief: as §1

[6] = system: MRSA KS89; test: MIC, broth microdilution, MRSA KS89; type: cell-based, Staphylococcus aureus; settings: for MIC-fold improvement vs. vancomycin: MRSA KS8, ratio of MIC of vancomycin and MIC of analogue; for MIC: Staphylococcus aureus MRSA KS8, read-out: MIC
Method in brief: as §1

[7] = system: E. faecalis VRE 6; test: MIC, broth microdilution, vancomycin-resistant E. faecalis VRE 6 (VanA); type: cell-based, Enterococcus faecalis; settings: for MIC: read-out: MIC; for MIC-fold improvement vs. vancomycin: VRE 6
Method in brief: as §1

[8] = system: L1210, CEM and HeLa cell lines; test: Cytostatic activity, average or summary over L1210, CEM and HeLa; type: cell-based; settings: average of L1210, CEM and HeLa; read-out: Toxicity (IC50) Average
Method in brief: (§2)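 Test compounds, serially diluted, received an equal volume of cell suspension at 300,000–500,000 cells/mL. After 37°C incubation (2 days for L1210, 3 for CEM, 4 for HeLa), cells were enumerated by Coulter counting and 50%-inhibitory concentrations calculated per cell type.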

[9] = system: Clostridium difficile ATJ ribotype 014/20; test: MIC, plate drop assay, C. difficile ATJ ribotype 014/20; type: cell-based; settings: for MIC-fold improvement vs. vancomycin: C. difficile ATJ ribotype 014/20
Method in brief: (§3)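 Lawns of each strain were made in soft BHI agar (0.4%) supplemented with CaCl2⋅2H2O and MgCl2⋅6H2O. Twofold compound dilutions (10 μL) were spotted, air-dried and incubated overnight at 37°C anaerobically; MIC read as cleared spots, in triplicate with water as negative control.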

[10] = system: human T-lymphocyte (CEM) cells; test: Cytostatic activity, CEM cell proliferation; type: cell-based; settings: mean ± SD of three experiments; highest concentration tested 250 µM; 3 days; read-out: Toxicity (IC50) CEM
Method in brief: as §2

[11] = system: S. aureus VSSA (ATCC 6538); test: MIC, broth microdilution, vancomycin-sensitive S. aureus (VSSA/MSSA, ATCC 6538); type: cell-based, Staphylococcus aureus; settings: for MIC: Staphylococcus aureus VSSA, read-out: MIC; for MIC-fold improvement vs. vancomycin: VSSA, ratio of MIC of vancomycin and MIC of analogue
Method in brief: as §1

[12] = system: MRSA KS2; test: MIC, broth microdilution, MRSA KS2; type: cell-based, Staphylococcus aureus; settings: for MIC-fold improvement vs. vancomycin: MRSA KS2, ratio of MIC of vancomycin and MIC of analogue; for MIC: Staphylococcus aureus MRSA KS2, read-out: MIC
Method in brief: as §1

[13] = system: E. faecalis VRE 53; test: MIC, broth microdilution, vancomycin-resistant E. faecalis VRE 53 (VanA); type: cell-based, Enterococcus faecalis; settings: for MIC: read-out: MIC; for MIC-fold improvement vs. vancomycin: VRE 53
Method in brief: as §1

[14] = system: E. faecalis VRE 29; test: MIC, broth microdilution, vancomycin-resistant E. faecalis VRE 29 (VanA); type: cell-based, Enterococcus faecalis; settings: for MIC: Enterococcus faecalis VRE 29 (vancomycin-resistant), read-out: MIC; for MIC-fold improvement vs. vancomycin: VRE 29, ratio of MIC of vancomycin and MIC of analogue
Method in brief: as §1

[15] = system: Murine leukemia (L1210) cells; test: Cytostatic activity, L1210 cell proliferation; type: cell-based; settings: mean ± SD of three experiments; highest concentration tested 250 µM; 2 days; read-out: Toxicity (IC50) L1210
Method in brief: as §2

[16] = system: Clostridium difficile AIU ribotype 027; test: MIC, plate drop assay, C. difficile AIU ribotype 027; type: cell-based; settings: for MIC-fold improvement vs. vancomycin: C. difficile AIU ribotype 027
Method in brief: as §3

[17] = system: human cervix carcinoma (HeLa) cells; test: Cytostatic activity, HeLa cell proliferation; type: cell-based; settings: mean ± SD of three experiments; highest concentration tested 250 µM; 4 days; read-out: Toxicity (IC50) HeLa
Method in brief: as §2

[18] = system: MRSA KS1; test: MIC, broth microdilution, MRSA KS1; type: cell-based, Staphylococcus aureus; settings: for MIC-fold improvement vs. vancomycin: MRSA KS1, ratio of MIC of vancomycin and MIC of analogue; for MIC: Staphylococcus aureus MRSA KS1, read-out: MIC
Method in brief: as §1

[19] = system: E. coli XL-1 blue MRF'; test: MIC, broth microdilution, E. coli XL-1 blue MRF'; type: cell-based, Escherichia coli; settings: E. coli XL-1 blue MRF'
Method: (§4) The minimum inhibitory concentration (MIC) was determined using the broth microdilution method according to the antimicrobial susceptibility testing standards of the clinical and laboratory standards institute ([Clinical and Laboratory Standards Institute [CLSI], 2012]). Ultrapure water and non-inoculated broth were used as controls. In one case, a final concentration of 10 μM vancomycin was included with the vancomycin analog or control antibiotic.

[20] = system: B. subtilis PSB3; test: MIC, broth microdilution, B. subtilis PSB3; type: cell-based, Bacillus subtilis
Method: as §4

[21] = Enterococcus faecalis VSE 1 (vancomycin-sensitive)
[22] = ratio of MIC of vancomycin and MIC of analogue
[23] = Enterococcus faecalis VRE 6 (vancomycin-resistant)
[24] = Enterococcus faecalis VRE 53 (vancomycin-resistant)

| Compound | MIC [1] [µM] | MIC-fold improvement vs. vancomycin [1] | MIC [2, 21] [µM] | MIC-fold improvement vs. vancomycin [2, 22] | MIC [3] [µM] | MIC-fold improvement vs. vancomycin [3] | MIC-fold improvement vs. vancomycin [4] | MIC [4] [µM] | MIC [5] [µM] | MIC-fold improvement vs. vancomycin [5] | MIC-fold improvement vs. vancomycin [6] | MIC [6] [µM] | MIC [7, 23] [µM] | MIC-fold improvement vs. vancomycin [7, 22] | IC50 [8] [µM] | MIC-fold improvement vs. vancomycin [9] | IC50 [10] [µM] | MIC [11] [µM] | MIC-fold improvement vs. vancomycin [11] | MIC-fold improvement vs. vancomycin [12] | further results |
| --- | --- | --- | --- | --- | --- | --- | --- | --- | --- | --- | --- | --- | --- | --- | --- | --- | --- | --- | --- | --- | --- |
| CN[C@H](CC(C)C)C(=O)N[C@H]1C(=O)N[C@@H](CC(N)=O)C(=O)N[C@H]2C(=O)N[C@H]3C(=O)N[C@H](C(=O)N[C@H](C(=O)NCC(=O)Nc4ccc(Nc5ccccc5)cc4)c4cc(O)cc(O)c4-c4cc3ccc4O)[C@H](O)c3ccc(c(Cl)c3)Oc3cc2cc(c3O[C@@H]2O[C@H](CO)[C@@H](O)[C@H](O)[C@H]2O[C@H]2C[C@](C)(N)[C@H](O)[C@H](C)O2)Oc2ccc(cc2Cl)[C@H]1O [Vanc-43] | 1.56 (≈ 2.61 µg/mL) | 64 | 0.39 (≈ 0.652 µg/mL) | 4 | 6.25 (≈ 10.5 µg/mL) | 64 | 0.25 | 3.13 (≈ 5.24 µg/mL) | 1.56 (≈ 2.61 µg/mL) | 4 | 2 | 0.39 (≈ 0.652 µg/mL) | 1.56 (≈ 2.61 µg/mL) | 128 | > 250 | 22 | > 250 | 0.39 (≈ 0.652 µg/mL) | 2 | 2 | MIC [12]: 0.39 µM (≈ 0.652 µg/mL); MIC [13, 24]: 25 µM (≈ 41.8 µg/mL); MIC-fold improvement vs. vancomycin [13, 22]: 16; MIC [14]: 6.25 µM (≈ 10.5 µg/mL); MIC-fold improvement vs. vancomycin [14]: 64; IC50 [15]: > 250 µM; MIC-fold improvement vs. vancomycin [16]: 29; IC50 [17]: > 250 µM; MIC-fold improvement vs. vancomycin [18]: 2; MIC [18]: 0.39 µM (≈ 0.652 µg/mL) |
| CCCCC#Cc1ccc(/C=C/C(=O)NCCNC(=O)[C@H]2NC(=O)[C@H]3NC(=O)[C@H](NC(=O)[C@@H]4NC(=O)[C@H](CC(N)=O)NC(=O)[C@H](NC(=O)[C@@H](CC(C)C)NC)[C@H](O)c5ccc(c(Cl)c5)Oc5cc4cc(c5O[C@@H]4O[C@H](CO)[C@@H](O)[C@H](O)[C@H]4O[C@H]4C[C@](C)(N)[C@H](O)[C@H](C)O4)Oc4ccc(cc4Cl)[C@H]3O)c3ccc(O)c(c3)-c3c(O)cc(O)cc32)cc1 [Vanc-48] | 1.56 (≈ 2.65 µg/mL) | 64 | 0.78 (≈ 1.33 µg/mL) | 2 | 3.13 (≈ 5.33 µg/mL) | 128 | 0.25 | 3.13 (≈ 5.33 µg/mL) | 1.56 (≈ 2.65 µg/mL) | 4 | 2 | 0.39 (≈ 0.664 µg/mL) | 1.56 (≈ 2.65 µg/mL) | 128 | 158 | up to 45 | 83 ± 11 | 0.20 (≈ 0.34 µg/mL) | 4 | 4 | MIC ([9]; C. difficile ATJ ribotype 014/20, plate drop assay): 0.78 µM (≈ 1.33 µg/mL); MIC-fold improvement vs. vancomycin ([9]; listed as Vanc- 48): 45; MIC [12]: 0.20 µM (≈ 0.34 µg/mL); MIC [13, 24]: 6.25 µM (≈ 10.6 µg/mL); MIC-fold improvement vs. vancomycin [13, 22]: 64; MIC [14]: 3.13 µM (≈ 5.33 µg/mL); MIC-fold improvement vs. vancomycin [14]: 128; IC50 [15]: 142 ± 21 µM; MIC-fold improvement vs. vancomycin [16]: ≤ 58; MIC ([16]; C. difficile AIU ribotype 027, plate drop assay): 0.78 µM (≈ 1.33 µg/mL); MIC-fold improvement vs. vancomycin ([16]; listed as Vanc- 48): 58; IC50 [17]: > 250 µM; MIC-fold improvement vs. vancomycin [18]: >8; MIC [18]: <0.10 µM |
| C#CCNC(=O)[C@H]1NC(=O)[C@H]2NC(=O)[C@H](NC(=O)[C@@H]3NC(=O)[C@H](CC(N)=O)NC(=O)[C@H](NC(=O)[C@@H](CC(C)C)NC)[C@H](O)c4ccc(c(Cl)c4)Oc4cc3cc(c4O[C@@H]3O[C@H](CO)[C@@H](O)[C@H](O)[C@H]3O[C@H]3C[C@](C)(N)[C@H](O)[C@H](C)O3)Oc3ccc(cc3Cl)[C@H]2O)c2ccc(O)c(c2)-c2c(O)cc(O)cc21 [Vanc-G] |  |  |  |  |  |  |  |  |  |  |  |  |  |  |  |  |  |  |  |  | MICvanc/MICi ([2]; E. faecalis VSE 1, ratio of MIC of vancomycin and MIC of analogue): 4; MIC ([2]; E. faecalis VSE 1): 0.39 µM (≈ 0.58 µg/mL); MICvanc/MICi ([7]; E. faecalis VRE 6, ratio of MIC of vancomycin and MIC of analogue): 2; MIC ([7]; E. faecalis VRE 6): 100 µM (≈ 149 µg/mL); MIC [19]: 12.5 µM (≈ 18.6 µg/mL); MICvanc/MICi [19, 22]: 8; MICvanc/MICi ([13]; E. faecalis VRE 53, ratio of MIC of vancomycin and MIC of analogue): 8; MIC ([13]; E. faecalis VRE 53): 50 µM (≈ 74.3 µg/mL); MIC [20]: 0.78 µM (≈ 1.16 µg/mL); MICvanc/MICi [20, 22]: 0.5 |

Reference: paper PMC6001238, “Iterative Chemical Engineering of Vancomycin Leads to Novel Vancomycin Analogs With a High in Vitro Therapeutic Index” (Frontiers in Microbiology, 2018)
